According to patent US7709471B2, “Compounds” (AstraZeneca AB, priority 2006, dated 2010):

What was measured:
[1] = target: recombinant Plk1 (Homo sapiens, UniProt P53350); experiment: In Vitro Plk1 Enzyme Assay (SPA, GST-Cdc25C phosphorylation); type: biochemical; conditions: ATP 64 nM, 90 minutes, read-out: IC50 (Plk1 enzyme inhibition)
[2] = tested on: human colon tumour cell line HT29; experiment: Cellular Assay (phosphohistone H3 Ser10 mitotic marker, HT29); type: cell-based; conditions: HT-29, 24 h, HT29 cells, read-out: IC50 (cellular assay, phosphohistone H3)

recombinant Plk1, sequence (P53350 whole entry): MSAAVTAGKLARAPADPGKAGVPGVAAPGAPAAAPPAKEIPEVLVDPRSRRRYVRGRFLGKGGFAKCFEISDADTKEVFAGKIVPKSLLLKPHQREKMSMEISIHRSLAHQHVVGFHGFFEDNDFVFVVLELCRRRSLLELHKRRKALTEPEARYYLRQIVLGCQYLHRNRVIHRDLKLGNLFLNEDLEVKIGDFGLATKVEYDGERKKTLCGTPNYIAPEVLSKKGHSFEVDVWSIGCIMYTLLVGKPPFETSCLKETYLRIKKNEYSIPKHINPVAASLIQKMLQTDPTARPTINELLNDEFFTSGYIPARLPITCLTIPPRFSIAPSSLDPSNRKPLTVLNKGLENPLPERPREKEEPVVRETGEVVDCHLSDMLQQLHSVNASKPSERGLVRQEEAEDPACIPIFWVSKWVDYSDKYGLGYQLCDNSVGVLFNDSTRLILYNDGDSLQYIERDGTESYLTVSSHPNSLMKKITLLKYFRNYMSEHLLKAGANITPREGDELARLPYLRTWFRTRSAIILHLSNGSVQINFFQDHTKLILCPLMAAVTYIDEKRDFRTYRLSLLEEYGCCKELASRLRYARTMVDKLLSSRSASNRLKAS

IC50 [1] [µM] | IC50 [2] [µM] | Compound
< 100 | < 30 | CN(C)c1ccc(Nc2ncc3c(n2)N(C2CCCC2)CCC(=O)N3C)cc1 [Example 122, 6-cyclopentyl-9-[(4-dimethylaminophenyl)amino]-2-methyl-2,6,8,10-tetrazabicyclo[5.4.0]undeca-8,10,12-trien-3-one]
< 100 | < 30 | CN1C(=O)CCN(C2CCCC2)c2nc(Nc3ccc(S(N)(=O)=O)cc3)ncc21 [Example 123, 4-[(6-cyclopentyl-2-methyl-3-oxo-2,6,8,10-tetrazabicyclo[5.4.0]undeca-8,10,12-trien-9-yl)amino]benzenesulfonamide]
< 0.3 | < 1 | COc1cc(C(=O)N[C@H]2CCNC2)ccc1Nc1ncc2c(n1)N(C1CCCC1)CCC(=O)N2C [Example 56, 4-[(6-cyclopentyl-2-methyl-3-oxo-2,6,8,10-tetrazabicyclo[5.4.0]undeca-8,10,12-trien-9-yl)amino]-3-methoxy-N-[(3S)-pyrrolidin-3-yl]benzamide]
< 0.3 | < 0.3 | COc1cc(C(=O)N[C@H]2[C@@H]3CNC[C@@H]32)ccc1Nc1ncc2c(n1)N(C1CCCC1)CCC(=O)N2C [Example 57, N-[(1S,5R)-3-azabicyclo[3.1.0]hex-6-yl]-4-[(6-cyclopentyl-2-methyl-3-oxo-2,6,8,10-tetrazabicyclo[5.4.0]undeca-8,10,12-trien-9-yl)amino]-3-methoxy-benzamide]
< 0.3 | < 1 | COc1cc(C(=O)NCCN2CCOCC2)ccc1Nc1ncc2c(n1)N(C(C)C)CCC(=O)N2C [Example 219, 3-methoxy-4-[(2-methyl-3-oxo-6-propan-2-yl-2,6,8,10-tetrazabicyclo[5.4.0]undeca-7,9,11-trien-9-yl)amino]-N-(2-morpholin-4-ylethyl)benzamide]
< 1 | < 0.3 | COc1cc(C(=O)NCc2ccncc2)ccc1Nc1ncc2c(n1)N(C1CCCC1)CCC(=O)N2C [Example 80, 4-[(6-cyclopentyl-2-methyl-3-oxo-2,6,8,10-tetrazabicyclo[5.4.0]undeca-8,10,12-trien-9-yl)amino]-3-methoxy-N-(pyridin-4-ylmethyl)benzamide]
< 0.3 | < 1 | COc1cc(OC2CCN(C)C2)ccc1Nc1ncc2c(n1)N(C1CCCC1)CCC(=O)N2C (stereo not drawn) [Example 114, 6-cyclopentyl-9-[[2-methoxy-4-(1-methylpyrrolidin-3-yl)oxy-phenyl]amino]-2-methyl-2,6,8,10-tetrazabicyclo[5.4.0]undeca-8,10,12-trien-3-one]
< 0.3 | < 0.3 | COc1cc(C(=O)NCC(C)(C)CN(C)C)ccc1Nc1ncc2c(n1)N(C1CCCC1)CC1(CC1)C(=O)N2C [Example 386, 4-(9′-cyclopentyl-5′-methyl-6′-oxo-5′,6′,8′,9′-tetrahydrospiro[cyclopropane-1,7′-pyrimido[5,4-b][1,4]diazepine]-2′-ylamino)-N-(3-dimethylamino-2,2-dimethyl-propyl)-3-methoxy-benzamide]
< 100 | < 1 | COc1cc(C(=O)NC2CCN(C)CC2)ccc1Nc1ncc2c(n1)N(C1CCCC1)CCCN2C [Example 4, 4-[(2-Cyclopentyl-6-methyl-2,6,9,11-tetrazabicyclo[5.4.0]undeca-8,10,12-trien-10-yl)amino]-3-methoxy-N-(1-methyl-4-piperidyl)benzamide]
< 100 | < 30 | COc1cc(C(=O)NC2CCCCC2)ccc1Nc1ncc2c(n1)N(CCN(C)C)CCC(=O)N2C [Example 275, N-cyclohexyl-4-[[2-(2-dimethylaminoethyl)-6-methyl-5-oxo-2,6,9,11-tetrazabicyclo[5.4.0]undeca-7,9,11-trien-10-yl]amino]-3-methoxy-benzamide]
< 1 | < 1 | COc1cc(OC2CCN(C)CC2)ccc1Nc1ncc2c(n1)N(C1CCCC1)CCC(=O)N2C [Example 113, 6-cyclopentyl-9-[[2-methoxy-4-[(1-methyl-4-piperidyl)oxy]phenyl]amino]-2-methyl-2,6,8,10-tetrazabicyclo[5.4.0]undeca-8,10,12-trien-3-one]
< 1 | < 30 | CC(=O)N1CCN(c2ccc(Nc3ncc4c(n3)N(C3CCCC3)CCC(=O)N4C)cc2)CC1 [Example 128, 9-[[4-(4-acetylpiperazin-1-yl)phenyl]amino]-6-cyclopentyl-2-methyl-2,6,8,10-tetrazabicyclo[5.4.0]undeca-8,10,12-trien-3-one]
< 0.3 | < 0.3 | CC(C)N1CCC(=O)N(C)c2cnc(Nc3ccc(C(=O)NC4CCN(C)CC4)cc3Cl)nc21 [Example 203, 3-chloro-4-[(2-methyl-3-oxo-6-propan-2-yl-2,6,8,10-tetrazabicyclo[5.4.0]undeca-7,9,11-trien-9-yl)amino]-N-(1-methyl-4-piperidyl)benzamide]
< 1 | < 30 | COCC(C)N1CCC(=O)N(C)c2cnc(Nc3ccc(C(=O)NC4CCN(C)CC4)cc3OC)nc21 (stereo not drawn) [Example 230, 3-methoxy-4-[[6-(1-methoxypropan-2-yl)-2-methyl-3-oxo-2,6,8,10-tetrazabicyclo[5.4.0]undeca-7,9,11-trien-9-yl]amino]-N-(1-methyl-4-piperidyl)benzamide]
< 0.3 | < 0.3 | COCCN1CCC(NC(=O)c2ccc(Nc3ncc4c(n3)N(C3CCCC3)CCC(=O)N4C)c(OC)c2)CC1 [Example 29, 4-[(6-cyclopentyl-2-methyl-3-oxo-2,6,8,10-tetrazabicyclo[5.4.0]undeca-8,10,12-trien-9-yl)amino]-3-methoxy-N-[1-(2-methoxyethyl)-4-piperidyl]benzamide]
< 0.3 | < 0.3 | COc1cc(C(=O)NC2CCN(C)CC2)ccc1Nc1ncc2c(n1)N(C(C)C)CCC(=O)N2C [Example 6, 3-Methoxy-4-[(6-methyl-5-oxo-2-propan-2-yl-2,6,9,11-tetrazabicyclo[5.4.0]undeca-7,9,11-trien-10-yl)amino]-N-(1-methyl-4-piperidyl)benzamide]
< 0.3 | < 0.3 | CCC1CN(C2CCCC2)c2nc(Nc3ccc(C(=O)NC4CCN(C)CC4)cc3OC)ncc2N(C)C1=O (single isomer, unassigned) [Example 236]
< 100 | < 1 | COc1cc(C(=O)Nc2ccccc2)ccc1Nc1ncc2c(n1)N(C1CCCC1)CCC(=O)N2C [Example 99, 4-[(6-cyclopentyl-2-methyl-3-oxo-2,6,8,10-tetrazabicyclo[5.4.0]undeca-8,10,12-trien-9-yl)amino]-3-methoxy-N-phenyl-benzamide]
< 1 | < 0.3 | COc1cc(C(=O)NCCCN2CCCCCC2)ccc1Nc1ncc2c(n1)N(C1CCCC1)CCC(=O)N2C [Example 70, N-[3-(azepan-1-yl)propyl]-4-[(6-cyclopentyl-2-methyl-3-oxo-2,6,8,10-tetrazabicyclo[5.4.0]undeca-8,10,12-trien-9-yl)amino]-3-methoxy-benzamide]
< 1 | < 1 | CN1C(=O)CCN(C2CCCC2)c2nc(Nc3ccc(C(=O)NCCN4CCOCC4)cc3)ncc21 [Example 191, 4-[(6-cyclopentyl-2-methyl-3-oxo-2,6,8,10-tetrazabicyclo[5.4.0]undeca-8,10,12-trien-9-yl)amino]-N-(2-morpholin-4-ylethyl)benzamide]
< 1 | < 1 | CCCC1CN(C2CCCC2)c2nc(Nc3ccc(C(=O)NC4CCN(C)CC4)cc3OC)ncc2N(C)C1=O (single isomer, unassigned) [Example 238]
< 0.3 | < 1 | CN1CCC(NC(=O)c2ccc(Nc3ncc4c(n3)N(C3CCCC3)CCC(=O)N4C)nc2)CC1 [Example 269, 6-[(6-cyclopentyl-2-methyl-3-oxo-2,6,8,10-tetrazabicyclo[5.4.0]undeca-8,10,12-trien-9-yl)amino]-N-(1-methyl-4-piperidyl)pyridine-3-carboxamide]
< 100 | < 0.3 | COc1cc(C(=O)NC2CCN(C(=O)OC(C)(C)C)CC2)ccc1Nc1ncc2c(n1)N(C1CCCC1)CCC(=O)N2C [Example 50, tert-butyl 4-[[4-[(6-cyclopentyl-2-methyl-3-oxo-2,6,8,10-tetrazabicyclo[5.4.0]undeca-8,10,12-trien-9-yl)amino]-3-methoxy-benzoyl]amino]piperidine-1-carboxylate]
< 1 | < 0.3 | CCN1CCC(NC(=O)c2ccc(Nc3ncc4c(n3)N(C3CCCC3)CC3(CC3)C(=O)N4C)c(OC)c2)CC1 [Example 383, 4-(9′-cyclopentyl-5′-methyl-6′-oxo-5′,6′,8′,9′-tetrahydrospiro[cyclopropane-1,7′-pyrimido[5,4-b][1,4]diazepine]-2′-ylamino)-N-(1-ethyl-4-piperidyl)-3-methoxy-benzamide]
< 0.3 | < 0.3 | CN1C(=O)CCN(C2CCCC2)c2nc(Nc3ccc(C(=O)NCCN4CCCC4)cc3Cl)ncc21 [Example 318, 3-chloro-4-[(2-cyclopentyl-6-methyl-5-oxo-2,6,9,11-tetrazabicyclo[5.4.0]undeca-7,9,11-trien-10-yl)amino]-N-(2-pyrrolidin-1-ylethyl)benzamide]
< 1 | < 0.3 | COc1cc(C(=O)NCCN2CCC(F)(F)CC2)ccc1Nc1ncc2c(n1)N(C1CCCC1)CCC(=O)N2C [Example 37, 4-[(6-cyclopentyl-2-methyl-3-oxo-2,6,8,10-tetrazabicyclo[5.4.0]undeca-8,10,12-trien-9-yl)amino]-N-[2-(4,4-difluoro-1-piperidyl)ethyl]-3-methoxy-benzamide]

Compound | IC50 [1] [µM] | IC50 [2] [µM]
CCOc1cc(C(=O)N[C@H]2C[C@H]3CCC[C@@H](C2)N3C)ccc1Nc1ncc2c(n1)N(C(C)C)CCC(=O)N2C [Example 283, 3-ethoxy-N-[(1S,5R)-9-methyl-9-azabicyclo[3.3.1]non-7-yl]-4-[(6-methyl-5-oxo-2-propan-2-yl-2,6,9,11-tetrazabicyclo[5.4.0]undeca-8,10,12-trien-10-yl)amino]benzamide] | < 0.3 | < 0.3
